Values joined by “and” are separate entries in the source; they are usually repeats but may differ in a detail not shown here. Identical values can stand only once. Toxic doses and inconclusive results are not listed. No stated cut-off is given here; in the data, active means T/C of 150% or more; inactive means T/C below 125%.
Tested on: L1210 leukemia ip in BDF1 mice, survival T/C
Test: NCI In Vivo Anticancer Drug Screen. Data for tumor model L1210 Leukemia (intraperitoneal) in B6D2F1 (BDF1) mice
Conditions: endpoint: mean survival time, higher = longer survival
Method in brief: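 Ratio derived from survival: compound-dosed mice over vehicle-dosed mice, all bearing a transplantable tumor.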

[1] = dose: 100.0 mg/kg/injection, schedule: Q01DX009 (ip), vehicle: saline with Tween-80
[2] = dose: 100.0 mg/kg/injection, schedule: Q04DX003 (ip), vehicle: saline with Tween-80
[3] = dose: 200.0 mg/kg/injection, schedule: Q01DX009 (ip), vehicle: saline with Tween-80
[4] = dose: 200.0 mg/kg/injection, schedule: Q04DX003 (ip), vehicle: saline with Tween-80
[5] = dose: 400.0 mg/kg/injection, schedule: Q01DX009 (ip), vehicle: saline with Tween-80
[6] = dose: 400.0 mg/kg/injection, schedule: Q04DX003 (ip), vehicle: saline with Tween-80
[7] = dose: 100.0 mg/kg/injection, schedule: Q01DX009 (ip), vehicle: saline
[8] = dose: 100.0 mg/kg/injection, schedule: Q04DX003 (ip), vehicle: Klucel (hydroxypropylcellulose) (HPC)
[9] = dose: 200.0 mg/kg/injection, schedule: Q01DX009 (ip), vehicle: saline
[10] = dose: 200.0 mg/kg/injection, schedule: Q04DX003 (ip), vehicle: Klucel (hydroxypropylcellulose) (HPC)
[11] = dose: 400.0 mg/kg/injection, schedule: Q01DX009 (ip), vehicle: saline

Measured: T/C

c1cnc2nc3[nH]c4ccccc4c3nc2c1
inactive: dose: 25.0 mg/kg/injection, schedule: Q01DX009 (ip), vehicle: saline with Tween-80 92 % of control | dose: 50.0 mg/kg/injection, schedule: Q01DX001 (oral), vehicle: saline with Tween-80 107 % of control | dose: 50.0 mg/kg/injection, schedule: Q01DX009 (ip), vehicle: saline with Tween-80 92 % of control and 89 % of control | dose: 50.0 mg/kg/injection, schedule: Q04DX003 (ip), vehicle: saline with Tween-80 96 % of control | dose: 100.0 mg/kg/injection, schedule: Q01DX001 (oral), vehicle: saline with Tween-80 115 % of control | [1] 94 % of control and 91 % of control | [2] 88 % of control | dose: 200.0 mg/kg/injection, schedule: Q01DX001 (oral), vehicle: saline with Tween-80 110 % of control | [3] 92 % of control and 94 % of control | [4] 90 % of control | dose: 400.0 mg/kg/injection, schedule: Q01DX001 (oral), vehicle: saline with Tween-80 108 % of control | [5] 92 % of control | [6] 86 % of control | dose: 800.0 mg/kg/injection, schedule: Q01DX001 (oral), vehicle: saline with Tween-80 105 % of control

O=C(O)c1ccc(O)c([N+](=O)[O-])c1
inactive: [7] 105 % of control | [8] 101 % of control | [9] 96 % of control | [10] 100 % of control | [11] 87 % of control | dose: 400.0 mg/kg/injection, schedule: Q04DX003 (ip), vehicle: Klucel (hydroxypropylcellulose) (HPC) 102 % of control

Clc1ccc(/C=N/c2snc3ccccc23)cc1Cl
inactive: dose: 100.0 mg/kg/injection, schedule: Q04DX002 (ip), vehicle: Klucel (hydroxypropylcellulose) (HPC) 92 % of control | dose: 200.0 mg/kg/injection, schedule: Q04DX002 (ip), vehicle: Klucel (hydroxypropylcellulose) (HPC) 89 % of control | dose: 400.0 mg/kg/injection, schedule: Q04DX002 (ip), vehicle: Klucel (hydroxypropylcellulose) (HPC) 86 % of control

CC(CNC1CCCCC1)OC(=O)c1ccc([N+](=O)[O-])cc1 (stereo not drawn)
inactive: dose: 75.0 mg/kg/injection, schedule: Q01DX001 (ip), vehicle: acetone 103 % of control | dose: 150.0 mg/kg/injection, schedule: Q01DX001 (ip), vehicle: acetone 93 % of control | dose: 300.0 mg/kg/injection, schedule: Q01DX001 (ip), vehicle: acetone 97 % of control

O=C(Nc1ccc([N+](=O)[O-])cc1Cl)Oc1ccc(Cl)cc1Cl
inactive: dose: 100.0 mg/kg/injection, schedule: Q01DX001 (ip), vehicle: carboxymethylcellulose (CMC) 97 % of control | dose: 100.0 mg/kg/injection, schedule: Q01DX009 (ip), vehicle: carboxymethylcellulose (CMC) 109 % of control and 91 % of control | dose: 100.0 mg/kg/injection, schedule: Q04DX002 (ip), vehicle: carboxymethylcellulose (CMC) 94 % of control and 90 % of control | dose: 100.0 mg/kg/injection, schedule: Q04DX003 (ip), vehicle: carboxymethylcellulose (CMC) 102 % of control | dose: 200.0 mg/kg/injection, schedule: Q01DX001 (ip), vehicle: carboxymethylcellulose (CMC) 97 % of control | dose: 200.0 mg/kg/injection, schedule: Q01DX009 (ip), vehicle: carboxymethylcellulose (CMC) 102 % of control and 91 % of control | dose: 200.0 mg/kg/injection, schedule: Q04DX002 (ip), vehicle: carboxymethylcellulose (CMC) 93 % of control and 110 % of control | dose: 200.0 mg/kg/injection, schedule: Q04DX003 (ip), vehicle: carboxymethylcellulose (CMC) 94 % of control | dose: 400.0 mg/kg/injection, schedule: Q01DX001 (ip), vehicle: carboxymethylcellulose (CMC) 98 % of control | dose: 400.0 mg/kg/injection, schedule: Q01DX009 (ip), vehicle: carboxymethylcellulose (CMC) 98 % of control | dose: 400.0 mg/kg/injection, schedule: Q04DX002 (ip), vehicle: carboxymethylcellulose (CMC) 93 % of control and 105 % of control | dose: 400.0 mg/kg/injection, schedule: Q04DX003 (ip), vehicle: carboxymethylcellulose (CMC) 98 % of control

CCS(=O)(=O)c1ccc(NC(=O)OC2CCCCCCC2)cc1
inactive: dose: 100.0 mg/kg/injection, schedule: Q01DX001 (ip), vehicle: other 93 % of control | dose: 200.0 mg/kg/injection, schedule: Q01DX001 (ip), vehicle: other 93 % of control | dose: 400.0 mg/kg/injection, schedule: Q01DX001 (ip), vehicle: other 93 % of control

CC(=O)N(CC(=O)O)Cc1ccccc1
inactive: dose: 100.0 mg/kg/injection, schedule: Q01DX009 (ip), vehicle: other 100 % of control | dose: 100.0 mg/kg/injection, schedule: Q04DX003 (ip), vehicle: other 95 % of control | dose: 200.0 mg/kg/injection, schedule: Q01DX009 (ip), vehicle: other 105 % of control | dose: 200.0 mg/kg/injection, schedule: Q04DX003 (ip), vehicle: other 101 % of control | dose: 400.0 mg/kg/injection, schedule: Q01DX009 (ip), vehicle: other 105 % of control | dose: 400.0 mg/kg/injection, schedule: Q04DX003 (ip), vehicle: other 106 % of control

Cc1ccc(Nc2c3ccccc3nc3ccccc23)c(C)c1
inactive: [8] 96 % of control | [10] 100 % of control

O=Cc1c2ccccc2cc2ccccc12
inactive: dose: 9.5 mg/kg/injection, schedule: Q01DX015 (ip), vehicle: saline 96 % of control | dose: 9.5 mg/kg/injection, schedule: Q## X015 (ip), vehicle: saline 94 % of control | dose: 9.7 mg/kg/injection, schedule: Q01DX015 (ip), vehicle: other 97 % of control | dose: 16.2 mg/kg/injection, schedule: Q01DX015 (ip), vehicle: other 107 % of control | dose: 16.2 mg/kg/injection, schedule: Q## X015 (ip), vehicle: saline 94 % of control | dose: 27.0 mg/kg/injection, schedule: Q01DX015 (ip), vehicle: other 104 % of control | dose: 27.0 mg/kg/injection, schedule: Q## X015 (ip), vehicle: saline 96 % of control | dose: 45.0 mg/kg/injection, schedule: Q01DX015 (ip), vehicle: other 91 % of control | dose: 45.0 mg/kg/injection, schedule: Q01DX015 (ip), vehicle: saline 96 % of control and 109 % of control | dose: 45.0 mg/kg/injection, schedule: Q## X015 (ip), vehicle: saline 94 % of control | dose: 50.0 mg/kg/injection, schedule: Q01DX001 (ip), vehicle: saline 95 % of control and 100 % of control and 103 % of control | dose: 100.0 mg/kg/injection, schedule: Q01DX001 (ip), vehicle: saline 97 % of control and 100 % of control and 103 % of control | dose: 200.0 mg/kg/injection, schedule: Q01DX001 (ip), vehicle: saline 101 % of control | dose: 400.0 mg/kg/injection, schedule: Q01DX001 (ip), vehicle: saline 97 % of control and 101 % of control and 114 % of control | dose: 800.0 mg/kg/injection, schedule: Q01DX001 (ip), vehicle: saline 100 % of control

OC(Cc1cc(CC(O)(C(F)(F)F)C(F)(F)F)ncn1)(C(F)(F)F)C(F)(F)F
inactive: [1] 108 % of control | [3] 97 % of control | [5] 97 % of control

CC(=O)OCC1OC(n2cnc3c(=O)[nH]nnc32)C(OC(C)=O)C1OC(C)=O (stereo not drawn)
inactive: dose: 100.0 mg/kg/injection, schedule: Q01DX005 (ip), vehicle: saline 96 % of control | [7] 94 % of control | dose: 200.0 mg/kg/injection, schedule: Q01DX005 (ip), vehicle: saline 104 % of control | [9] 92 % of control | [11] 99 % of control

COc1ccc2c3c1OC1CC(O)C=CC31CCN(C)C2 (stereo not drawn)
inactive: dose: 2.5 mg/kg/injection, schedule: Q01DX009 (ip), vehicle: saline 102 % of control | dose: 2.9 mg/kg/injection, schedule: Q01DX Z (ip), vehicle: saline 105 % of control | dose: 5.0 mg/kg/injection, schedule: Q01DX009 (ip), vehicle: saline 107 % of control

COc1cc([N+](=O)[O-])ccc1NC(=O)Nc1cccc(C(F)(F)F)c1
inactive: dose: 100.0 mg/kg/injection, schedule: Q01DX009 (ip), vehicle: gum acacia 92 % of control | dose: 200.0 mg/kg/injection, schedule: Q01DX009 (ip), vehicle: gum acacia 92 % of control

CCC(C)C(CN)(CCCN1CCOCC1)c1cccc2ccccc12 (stereo not drawn)
inactive: [2] 93 % of control | [4] 95 % of control | [6] 95 % of control

NNC(=O)OCc1ccccc1
inactive: dose: 25.0 mg/kg/injection, schedule: Q04DX002 (ip), vehicle: saline with Tween-80 100 % of control | dose: 50.0 mg/kg/injection, schedule: Q04DX002 (ip), vehicle: saline with Tween-80 100 % of control | dose: 100.0 mg/kg/injection, schedule: Q04DX002 (ip), vehicle: saline with Tween-80 100 % of control

— PubChem BioAssay AID248 (DTP/NCI, 2004)
